Measurements published in ChEMBL document CHEMBL1121451, “Neuroleptic activity in 5-aryltetrahydro-gamma-carbolines” (J Med Chem, 1980).

Experiments:
Format in all cases: functional
[1] = tested on: Rattus norvegicus; assay: Tested for neuroleptic activity by measuring antagonism of d-amphetamine sulfate at intraperitoneal dosage of 5 mg/kg, after 1 hour in rat; Range is 1.0-3.2; settings: ip
[2] = tested on: Rattus norvegicus; assay: Tested for neuroleptic activity by measuring antagonism of d-amphetamine sulfate at intraperitoneal dosage of 5 mg/kg, after 24 hours in rat; settings: ip
[3] = tested on: Rattus norvegicus; assay: Tested for neuroleptic activity by measuring antagonism of d-amphetamine sulfate at intraperitoneal dosage of 5 mg/kg, after 5 hours in rat; Range is 1.0-3.2; settings: ip
[4] = species: Rattus norvegicus; assay: Inhibition of amphetamine induced stereotypy in rats; pretreated 1 hr before amphetamine.
[5] = tested on: Rattus norvegicus; assay: Tested for neuroleptic activity by measuring antagonism of d-amphetamine sulfate at intraperitoneal dosage of 5 mg/kg, after 5 hours in rat; settings: ip
[6] = tested on: Rattus norvegicus; assay: Tested for neuroleptic activity by measuring antagonism of d-amphetamine sulfate at intraperitoneal dosage of 5 mg/kg, after 5 hours in rat; Range is 0.32-1.0; settings: ip
[7] = tested on: Rattus norvegicus; assay: Tested for neuroleptic activity by measuring antagonism of d-amphetamine sulfate at intraperitoneal dosage of 5 mg/kg, after 1 hour in rat; Range is 0.32-1.0; settings: ip
[8] = tested on: Rattus norvegicus; assay: Tested for neuroleptic activity by measuring antagonism of d-amphetamine sulfate at intraperitoneal dosage of 5 mg/kg, after 1 hour in rat; Range is 3.2-10; settings: ip
[9] = tested on: Rattus norvegicus; assay: Tested for neuroleptic activity by measuring antagonism of d-amphetamine sulfate at intraperitoneal dosage of 5 mg/kg, after 1 hour in rat; Range is 10-32; settings: ip
[10] = tested on: Rattus norvegicus; assay: Tested for neuroleptic activity by measuring antagonism of d-amphetamine sulfate at intraperitoneal dosage of 5 mg/kg, after 5 hours in rat; Range is 10-32; settings: ip
[11] = tested on: Rattus norvegicus; assay: Tested for neuroleptic activity by measuring antagonism of d-amphetamine sulfate at intraperitoneal dosage of 5 mg/kg, after 5 hours in rat; Range is 3.2-10; settings: ip
[12] = tested on: Rattus norvegicus; assay: Tested for neuroleptic activity by measuring antagonism of d-amphetamine sulfate at intraperitoneal dosage of 5 mg/kg, after 1 hour in rat; Range is 0.1-0.32; settings: ip

SMILES	ED50 [2]	ED50 [4]	ED50 [5]	other results
Cl.OC(CCCCN1CCc2c(c3cc(F)ccc3n2-c2ccc(F)cc2)C1)c1ccc(F)cc1 (stereo unspecified)	> 3.2 mg/kg	–	–	ED50 [1]: 1 mg/kg; ED50 [3]: 1 mg/kg
COc1ccc2c(c1)c1c(n2-c2ccc(F)cc2)CCN(C)C1.Cl	–	> 32 mg/kg	> 32 mg/kg	–
Cl.OC(CCCN1CCc2c(c3cc(F)ccc3n2-c2ccc(F)cc2)C1)c1ccccc1 (stereo unspecified)	> 3.2 mg/kg	–	–	ED50 [6]: 0.32 mg/kg; ED50 [7]: 0.32 mg/kg
CCCN1CCc2c(c3cc(F)ccc3n2-c2ccc(F)cc2)C1.Cl	–	–	> 10 mg/kg	ED50 [8]: 3.2 mg/kg
CC(C)(C)CCN1CCc2c(c3cc(F)ccc3n2-c2ccc(F)cc2)C1.Cl	> 10 mg/kg	> 10 mg/kg	> 10 mg/kg	–
Cl.O=C(CCCN1CCc2c(c3cc(F)ccc3n2-c2ccc(F)cc2)C1)c1ccccc1	–	–	–	ED50 [9]: 10 mg/kg; ED50 [10]: 10 mg/kg
CN1CCc2c(c3cc(F)ccc3n2-c2ccc(F)cc2)C1.Cl	> 10 mg/kg	–	–	ED50 [1]: 1 mg/kg; ED50 [11]: 3.2 mg/kg
CN1CCc2c(c3cc(Br)ccc3n2-c2ccccc2)C1.Cl	–	–	–	ED50 [8]: 3.2 mg/kg
Cc1ccc(C(O)CCCN2CCc3c(c4cc(F)ccc4n3-c3ccc(F)cc3)C2)cc1.Cl (stereo unspecified)	> 10 mg/kg	–	–	ED50 [12]: 0.1 mg/kg; ED50 [3]: 1 mg/kg
Cl.OC(CCCN1CCc2c(c3cc(F)ccc3n2-c2ccc(C(F)(F)F)cc2)C1)c1ccc(F)cc1 (stereo unspecified)	–	–	–	ED50 [9]: 10 mg/kg; ED50 [10]: 10 mg/kg
CN1CCN(CC/C=C2/c3ccccc3Sc3ccc(S(=O)(=O)N(C)C)cc32)CC1 [THIOTHIXENE]	> 17.8 mg/kg	–	–	ED50 [6]: 0.32 mg/kg; ED50 [7]: 0.32 mg/kg
Cl.OC(CCCN1CCc2c(c3cc(F)ccc3n2-c2ccc(F)cc2)C1)c1ccccc1F (stereo unspecified)	> 3.2 mg/kg	–	–	ED50 [12]: 0.1 mg/kg; ED50 [3]: 1 mg/kg
Cl.OC(CCCN1CCc2c(c3cc(F)ccc3n2-c2ccc(F)cc2)C1)c1ccc(Cl)c(C(F)(F)F)c1 (stereo unspecified)	> 32 mg/kg	> 32 mg/kg	> 32 mg/kg	–
Cn1c2c(c3cc(F)ccc31)CN(CCCC(=O)c1ccc(F)cc1)CC2	–	–	> 32 mg/kg	ED50 [9]: 10 mg/kg
Cl.O=C(CCCN1CCc2c(c3cc(F)ccc3n2-c2cccc(C(F)(F)F)c2)C1)c1ccc(F)cc1	–	> 32 mg/kg	–	–
COc1ccc2c(c1)c1c(n2-c2ccccc2)CCN(C)C1.Cl	–	> 32 mg/kg	> 32 mg/kg	–
Cl.OC(CCCN1CCc2c(c3cc(F)ccc3n2-c2cccc(C(F)(F)F)c2)C1)c1ccc(F)cc1 (stereo unspecified)	–	> 32 mg/kg	> 32 mg/kg	–
Cl.OC(CCCN1CCc2c(c3cc(F)ccc3n2-c2cccc(F)c2)C1)c1ccc(F)cc1 (stereo unspecified)	–	–	> 10 mg/kg	ED50 [8]: 3.2 mg/kg
COc1ccc(C(O)CCCN2CCc3c(c4cc(F)ccc4n3-c3ccc(F)cc3)C2)cc1.Cl (stereo unspecified)	> 3.2 mg/kg	–	–	ED50 [1]: 1 mg/kg; ED50 [3]: 1 mg/kg
Fc1ccc(-n2c3c(c4cc(F)ccc42)CNCC3)cc1	–	–	–	ED50 [9]: 10 mg/kg
Fc1ccc(C(=CCCN2CCc3c(c4cc(F)ccc4n3-c3ccc(F)cc3)C2)c2ccc(F)cc2)cc1	> 32 mg/kg	> 32 mg/kg	> 32 mg/kg	–
Cl.O=C(CCCCN1CCc2c(c3cc(F)ccc3n2-c2ccc(F)cc2)C1)c1ccc(F)cc1	> 32 mg/kg	> 32 mg/kg	> 32 mg/kg	–
CCOC(=O)N1CCc2c(c3cc(F)ccc3n2-c2ccc(F)cc2)C1	> 32 mg/kg	> 32 mg/kg	> 32 mg/kg	–
OC(CCCN1CCc2[nH]c3ccc(F)cc3c2C1)c1ccc(F)cc1 (stereo unspecified)	> 10 mg/kg	–	> 10 mg/kg	ED50 [8]: 3.2 mg/kg
OC(CCCN1CCc2c(c3cc(F)ccc3n2-c2ccc(F)cc2)C1)c1cccs1 (stereo unspecified)	–	–	> 32 mg/kg	ED50 [9]: 10 mg/kg
Cc1ccc2c(c1)c1c(n2-c2ccccc2)CCN(C)C1	> 32 mg/kg	–	> 32 mg/kg	ED50 [9]: 10 mg/kg
Cl.Fc1ccc(C(CCCN2CCc3c(c4cc(F)ccc4n3-c3ccc(F)cc3)C2)c2ccc(F)cc2)cc1	> 32 mg/kg	> 32 mg/kg	> 32 mg/kg	–
